According to US8188271B2, “Polycyclic carbamoylpyridone derivative having HIV integrase inhibitory activity” (Shionogi & Co., Ltd., priority 2005, dated 2012):

What follows are compounds tested against HIV integrase (Human immunodeficiency virus type 1 group M subtype B, UniProt P04585) (assay: HIV integrase inhibitory activity assay (strand transfer, immunoplate, OD405)). Details: HIV integrase inhibition rate, absorbance OD405 nm.
Format: biochemical
Experimental: The HIV integrase inhibitory activity was investigated based on the following assay method.
(1) Preparation of DNA Solution
By the same method as that described in Experimental Example 1 of WO 2004/024693, a substrate DNA solution (2 μmol/μl) and a target DNA solution (5 μmol/μl) were prepared. […] Each sequence of a substrate DNA and a target DNA is as described in the same Experimental Example.
(2) Measurement of Inhibition Rate (IC50 Value)
Streptavidin (manufactured by Vector Laboratories) was dissolved in a 0.1 M carbonate buffer solution (composition: 90 mM Na2CO3, 10 mM NaHCO3) to a concentration of 40 μg/ml. Each 50 μl of this solution was added to a well of an immunoplate (manufactured by NUNC), and this is allowed to stand at 4° C. overnight to adsorb. Then, each well was washed with a phosphate buffer (composition: 13.7 mM NaCl, 0.27 mM KCl, 0.43 mM Na2HPO4, 0.14 mM KH2PO4) two times, and 300 μl of a phosphate buffer containing 1% skim milk was added to block it for 30 minutes. Further, each well was washed with a phosphate buffer two times, […] of a substrate DNA solution (2 μmol/μl) was added to adsorb at room temperature for 30 minutes while shaking, and this was washed with a phosphate buffer two times and, then, distilled water once.
Then, to each well prepared as described above were added 12 μl of a buffer (composition: 150 mM MOPS (pH7.2), 75 mM MnCl2, 50 mM 2-mercaptoethanol, 25% glycerol, 500 μg/ml bovine serum albumin-fraction V), and 51 μl of a reaction solution prepared from […] of distilled water. Then, 9 μl of an integrase solution (30 μmol) was added, and the mixture was mixed well. To a well as a negative control (NC) was added 9 μl of a diluting solution (composition: 20 mM MOPS (pH7.2), 400 mM potassium glutamete, 1 mM EDTA, 0.1% NP-40, 20% glycerol, 1 mM DTT, 4 M urea), and this was mixed well using a plate mixer.
After the plate was incubated at 30° C. for 60 minutes, the reaction solution was discarded, followed by washing with 250 μl of a washing buffer (composition: 150 mM MOPS (pH7.2), 50 mM 2-mercaptoethanol, 25% glycerol, 500 μg/ml bovine serum albumin-fraction V) three times.
Then, to each well were added 12 μl of a buffer (composition: 150 mM MOPS (pH7.2), 75 mM MgCl2, 50 mM 2-mercaptoethanol, 25% glycerol, 500 μg/ml bovine serum albumin-fraction V), and 53 μl of a reaction solution prepared from 41 μl of distilled water. Further, 6 μl of a solution of a test compound in DMSO was added to each well, and 6 μl of DMSO was added to a well as a positive control (PC), followed by mixing well using a plate mixer. […]
C abs.; absorbance of well of compound
NC abs.: absorbance of NC
PC abs.: absorbance of PC

| SMILES | IC50 |
| --- | --- |
| O=C(NCc1ccc(F)cc1F)c1cn2c(c(O)c1=O)C(=O)N(C[C@@H]1CCCO1)CN2 [Example O-06, 5-Hydroxy-4,6-dioxo-3-[(S)-1-(tetrahydro-furan-2-yl)methyl]-2,3,4,6-tetrahydro-1H-pyrid[2,1-f][1,2,4]triazine-7-carboxylic acid 2,4-difluoro-benzylamide] | 3.8 nM |
| CN1CN(C[C@@H]2CCCO2)C(=O)c2c(O)c(=O)c(C(=O)NCc3ccc(F)cc3F)cn21 [Example N-15, 5-Hydroxy-1-methyl-4,6-dioxo-3-[(S)-1-(tetrahydro-furan-2-yl)methyl]-2,3,4,6-tetrahydro-1H-pyrid[2,1-f][1,2,4]triazine-7-carboxylic acid 2,4-difluoro-benzylamide] | 3.3 nM |
| O=C(NCc1ccc(F)cc1F)c1cn2c(c(O)c1=O)C(=O)N(CCN1CCOCC1)CN2 [Example O-07, 5-Hydroxy-3-(2-morpholin-4-yl-ethyl)-4,6-dioxo-2,3,4,6-tetrahydro-1H-pyrid[2,1-f][1,2,4]triazine-7-carboxylic acid 2,4-difluoro-benzylamide] | 4.8 nM |
| CN1CN(C[C@H]2CCCO2)C(=O)c2c(O)c(=O)c(C(=O)NCc3ccc(F)cc3F)cn21 [Example N-16, 5-Hydroxy-1-methyl-4,6-dioxo-3-[(R)-1-(tetrahydro-furan-2-yl)methyl]-2,3,4,6-tetrahydro-1H-pyrid[2,1-f][1,2,4]triazine-7-carboxylic acid 2,4-difluoro-benzylamide] | 2.6 nM |
